Like-named read-outs stand apart in the source and are kept apart here. In the oligonucleotide strings, read from the 5' end, every base follows the letter of its sugar. An asterisk marks phosphorothioate; unmarked linkages are phosphodiester. Other units and linkages are bracketed, terminal groups are in braces. A string of capitals states the bases alone. r = 2'-OH (RNA); f = 2'-fluoro
Experiments:
[1] = target: T1, CD133 expressed on HT-29 cells (Homo sapiens, UniProt O43490); test: Aptamer dissociation constant by flow cytometry, HT-29 cells; conditions: HT-29 cells (CD133-positive); binding at 37° C. for 30 min
T1 construct: determined using CD133 positive (HT-29 and Hep3B) and CD133 negative cell lines (T98G and HEK293T); host or cells: HT-29
T1 sequence (O43490 20-865): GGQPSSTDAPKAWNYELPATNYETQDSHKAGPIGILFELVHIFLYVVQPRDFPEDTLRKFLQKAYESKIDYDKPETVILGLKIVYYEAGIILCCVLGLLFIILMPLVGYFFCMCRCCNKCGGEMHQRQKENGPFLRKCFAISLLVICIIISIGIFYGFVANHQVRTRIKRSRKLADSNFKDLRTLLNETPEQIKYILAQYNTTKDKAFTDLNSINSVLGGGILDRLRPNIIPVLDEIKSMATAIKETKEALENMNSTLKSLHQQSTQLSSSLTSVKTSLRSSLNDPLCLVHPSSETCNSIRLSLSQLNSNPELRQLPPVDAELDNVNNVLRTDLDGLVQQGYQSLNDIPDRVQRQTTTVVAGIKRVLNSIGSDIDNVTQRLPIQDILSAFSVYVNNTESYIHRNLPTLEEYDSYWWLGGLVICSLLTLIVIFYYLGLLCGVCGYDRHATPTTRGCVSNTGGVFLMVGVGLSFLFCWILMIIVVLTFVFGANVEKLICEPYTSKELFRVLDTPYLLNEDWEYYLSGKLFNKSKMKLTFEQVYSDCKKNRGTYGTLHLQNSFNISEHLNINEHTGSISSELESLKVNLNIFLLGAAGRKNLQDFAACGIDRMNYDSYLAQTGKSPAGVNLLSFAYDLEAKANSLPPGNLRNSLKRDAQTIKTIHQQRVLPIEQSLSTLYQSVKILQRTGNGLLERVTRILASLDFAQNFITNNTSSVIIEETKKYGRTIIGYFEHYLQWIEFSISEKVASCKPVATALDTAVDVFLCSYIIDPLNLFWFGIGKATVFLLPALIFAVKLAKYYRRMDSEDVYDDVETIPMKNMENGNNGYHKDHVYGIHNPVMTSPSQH
Description: (§1) Cells were harvested at 80% confluence with trypsin digestion and resuspended in washing buffer (DPBS with 2.5 mM MgCl2) and enumerated. Following centrifugation (1000×g for 5 min), the cell pellet was resuspended in binding buffer (DPBS supplemented with 5 mM MgCl2, 0.1 mg/ml tRNA, 0.1 mg/ml salmon sperm DNA) and diluted to 1×10^6/mL.
(§2) The dissociation constant (Kd) of successful 2′-fluoropyrimidine RNA aptamer species to native CD133 expressed on the cell surface was determined using flow cytometry. […] The mean fluorescence intensity (MFI) of the unselected library was subtracted from that of the aptamer-target cell to generate the MFI of specific binding. The Kd for each aptamer was determined by Scatchard analysis according to the equation: [Bound aptamer]/[aptamer]=−(1/Kd)×[bound aptamer]+([T]tot/Kd) where [T]tot represents the total target concentration. […]
(§3) To generate the truncated aptamers, the sense and antisense DNA oligonucleotides of desired sequences were synthesised. […] The binding affinities of these two aptamers and a negative control aptamer was determined using CD133 positive (HT-29 and Hep3B) and CD133 negative cell lines (T98G and HEK293T). […]

[2] = target: T2, CD133 expressed on Hep3B cells (Homo sapiens, UniProt O43490); test: Aptamer dissociation constant by flow cytometry, Hep3B cells; conditions: Hep3B cells (CD133-positive); binding at 37° C. for 30 min
T2 construct: determined using CD133 positive (HT-29 and Hep3B) and CD133 negative cell lines (T98G and HEK293T); host or cells: Hep3B
T2 sequence (O43490 20-865): T1 sequence (O43490 20-865)
Description: as §1, §2, §3

[3] = system: CD133-negative HEK293T cells; test: Aptamer dissociation constant by flow cytometry, HEK293T cells (specificity); set-up: species or system human; conditions: binding at 37° C. for 30 min
Description: as §1, §2, §3

[4] = system: CD133-negative T98G cells; test: Aptamer dissociation constant by flow cytometry, T98G cells (specificity); set-up: species or system human; conditions: binding at 37° C. for 30 min
Description: as §1, §2, §3

[5] = system: colon cancer cells (HT29); conditions: 1 μM; for Tumoursphere formation after treatment: 3 days post-treatment

Molecule | Kd [1] [µM] | Kd [2] [µM] | Kd [3] [µM] | Kd [4] [µM] | Tumoursphere formation after treatment ([5]; 10 cells/well) | Tumoursphere formation after treatment ([5]; 50 cells/well) | inhibition of tumoursphere formation (in words) ([5]; 100 cells/well) | Tumoursphere formation after treatment ([5]; 100 cells/well)
CD133-2-1: 19 mer 2′-F-pyrimidine RNA aptamer, 5′-CAGAACGUAUACUAUUCUG-3′ (SEQ ID NO:6) (fCrArGrArAfCrGfUrAfUrAfCfUrAfUfUfCfUrG; further chemistry not given here) | 0.145 | 0.052 | 1740 | 4.76 |  |  |  | 
CD133-1-2-2: 15 mer 2′-F-pyrimidine RNA aptamer, 5′-CC CUC CUA CAU AGG G-3′ (SEQ ID NO:1) (fCfCfCfUfCfCfUrAfCrAfUrArGrGrG; further chemistry not given here) | 0.082 | 0.032 | 120 | 275 |  |  |  | 
COc1cccc2c1C(=O)c1c(O)c3c(c(O)c1C2=O)C[C@@](O)(C(=O)CO)C[C@@H]3O[C@H]1C[C@H](N)[C@H](O)[C@H](C)O1 [Doxorubicin, doxorubicin] |  |  |  |  | 5/5 | 5/5 | no effect | 5/5
